This is an account of results in patent US8252766B2 (CBT Development Limited, priority 2002, dated 2012).

Molecules are shown by their SMILES.

Series [1] is described as follows: blood pressure and heart rate by implantable radiotelemetry. It is filed as in vivo, rat. Particulars: 0.624 mg/kg p.o., normal rats. The text has this: An implantable radiotelemetry device was placed in the abdominal cavity of 6 rats per group. The pressure catheter of the device was inserted in the abdominal aorta and two electrodes tunnelised under the skin in a lead II position (left side of abdominal cavity/right shoulder). Individual rats were placed in their own cage on a radioreceptor (DSI) for data acquisition. A: blood pressure, B; heart rate.

For series [2] the following is noted: rats; cited from earlier work.
The test system of series [3] is static allodynia. The experiment in a line: static allodynia in a model of neuropathic pain. It counts as in vivo. As to the method:
Spongosine and gabapentin were administered (p.o.) in different proportions as indicated in the drawing. The total dose administered is shown on the horizontal axis, and the paw withdrawal threshold (PWT) on the vertical axis. The predicted anti-hyperalgesic effect (derived from the dose response curves obtained with each agent alone) if the effects of the two compounds are additive is shown (●). The observed effects are indicated by (▪).

In series [4] the test system is carrageenan (CGN) induced thermal hyperalgesia. The experiment in a line: carrageenan induced thermal hyperalgesia (CITH). It counts as in vivo. Here is the method:
Carrageenan (2%, 10 microliters) was administered into the right hind paw. A heat source was placed close to the treated and untreated hind paws, and the difference in the paw withdrawal latencies is shown. Spongosine was administered at the same time as carrageenan.

The subject of series [5] is normal physiological nociception. As to the kind of experiment: normal physiological nociception. It counts as in vivo. The conditions noted are these: after administration of spongosine.
The subject of series [6] is carrageenan-induced oedema. The conditions noted are these: rats; inhibition of carrageenan-induced oedema in a rat paw; cited from earlier work.
Series [7] has as its system thermal hyperalgesia caused by chronic constriction injury. As to the kind of experiment: thermal hyperalgesia caused by chronic constriction injury of the rat sciatic nerve. It counts as in vivo. The text has this: After approximately two weeks the rats developed thermal hyperalgesia in the operated leg as judged by the difference in paw withdrawal latencies of the right and left paws.

On to `COc1nc(N)c2ncn([C@@H]3O[C@H](CO)[C@@H](O)[C@H]3O)c2n1` [Spongosine, 2-methoxyadenosine], for which, in series [1], the “effect on blood pressure” value is “no significant effect” and the “effect on heart rate” value is listed as “no significant effect”. Moreover, in series [2], the hypotensive activity entry was “hypotensive”, the hypothermic activity entry is “hypothermic” and the muscle relaxant activity result is on record as “muscle relaxant”. Moreover, the “inhibition of static allodynia (paw withdrawal threshold, PWT)” value (“inhibition of static allodynia” below) in series [3] (1.2 mg/kg p.o., absence of naloxone) was “inhibits”. The “inhibition of static allodynia” value in series [3] (1.2 mg/kg p.o., presence of naloxone 1 mg/kg s.c.) was “inhibits”. In addition, the “inhibition of static allodynia” value in series [3] (p.o., dose response, Example 5) is listed as “inhibit”. The “inhibition of carrageenan induced thermal hyperalgesia (difference in paw withdrawal latencies)” value in series [4] (0.624 mg/kg p.o., given at the same time as carrageenan (2%, 10 microliters, right hind paw)) is listed as “inhibits”. The “efficacy relative to indomethacin” value in series [4] (spongosine 0.624 mg/kg p.o. versus indomethacin 3 mg/kg po) was “comparable efficacy”. Besides, the “analgesic effect on normal physiological nociception” value in series [5] is on record as “No analgesic effect”. For the same compound, in series [6], the anti-inflammatory activity result is on record as “anti-inflammatory activity”. Moreover, in series [7] (0.624 mg/kg p.o., rat, about two weeks after sciatic nerve ligation), the “inhibition of thermal hyperalgesia (difference in paw withdrawal latencies)” value was “inhibits”. Further, in series [7] (spongosine 0.624 mg/kg p.o. versus carbamazepine 100 mg/kg s.c.), the “efficacy relative to carbamazepine” value was “as, or more, effective”.
For `NCC1(CC(=O)O)CCCCC1` [gabapentin, reference compound], the “inhibition of static allodynia” value in series [3] (p.o., dose response, Example 5) is given as “inhibit”.
